Legend:
[1] = In vitro stability: preincubation at 37° C. in saline, then MTS neuroprotection assay; settings: 0.2 mM in saline preincubated at 37° C. for 11 days, then 0.2 μM on Htt-72Q cortical neurons, MTS at DIV 14
Text: Data are presented as mean+SEM.
Primary cortical neurons grown in a 96-well plate were transduced with Htt-expressing lentiviruses at DIV 5 and assessed for mitochondrial metabolic activity at 9 days post-infection (DIV 14) using 3-(4,5-dimethylthiazol-2-yl)-5-(3-carboxymethoxyphenyl)-2-(4-sulfophenyl)-2H-tetrazolium (MTS) (Promega) per manufacturer's instructions. MTS-reducing activity was normalized for each condition to Htt-25Q lentiviruses treated with vehicle or cotransduced with control RNAi lentivirus (=1). Experiments were performed in 3 or more wells per experiment in three to five independent experiments.

[2] = test system: mutant Htt aggregates in Htt-72Q-expressing primary cortical neurons; assay: Mutant Htt aggregates, EM48 immunofluorescence and immunoblotting; assay type: cell-based, mouse
Experimental: (FIG. 8A) DIV 5 mouse primary cortical neurons were infected with Htt-72Q lentivirus and treated with decitabine or vehicle (DMSO). […] (FIG. 8B) DIV 5cortical neurons were infected with Htt lentivirus and treated with decitabine (0.2 μM) or DMSO. Neurons were fixed at DIV 11-12 and subjected to indirect immunofluorescence with a specific mouse monoclonal Htt antibody EM48, which preferentially detects aggregated mutant protein. Nuclei were labeled with Hoechst 33342. Images were captured using an Operetta high-content imaging system (PerkinElmer) with a 20× objective lens. Bar 100 μm. (FIG. 8C) EM48 immunofluorescence intensity in (FIG. 8B) was quantified using an ImageJ-based macro. […] (FIG. 8D) Cortical neurons transduced and processed as in (FIG. 8A) were directly harvested in SDS sample buffer at DIV 10 and subjected to immunoblotting with anti-Htt EM48 monoclonal antibody. Blot was reprobed with anti-β-actin antibody. Representative immunoblot from 3 independent experiments is shown. […] Data in (FIG. 8A) and (FIG. 8C) are presented as mean+SEM.
Image capture and quantification of Htt (EM48) immunofluorescence intensity were performed as described for those of NF.

cytidine deaminase = target: T1, cytidine deaminase (Homo sapiens, UniProt P32320); settings: literature refs 62, 64; cited from earlier work
T1 construct: host or cells: liver (in vivo)
T1 sequence (P32320 whole entry, species assumed): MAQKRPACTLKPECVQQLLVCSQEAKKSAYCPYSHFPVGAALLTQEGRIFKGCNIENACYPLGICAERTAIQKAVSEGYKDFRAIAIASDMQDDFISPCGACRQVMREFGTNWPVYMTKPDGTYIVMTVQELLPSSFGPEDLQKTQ

Nc1ncn([C@H]2C[C@H](O)[C@@H](CO)O2)c(=O)n1 [decitabine, 5-aza-2′-deoxycytidine]
neuroprotective activity after preincubation (in vitro stability) [1]: lost its activity
levels of mutant Htt aggregates (EM48 immunofluorescence intensity) ([2]; 0.2 μM, fixed at DIV 11-12, vs. Htt-72Q-DMSO): significantly decreased the levels of mutant Htt aggregates
aggregated high molecular weight mutant Htt in stacking gel (EM48 immunoblot) ([2]; harvested at DIV 10): could decrease the levels of aggregated high molecular weight mutant Htt
degradation by cytidine deaminase in the liver (cytidine deaminase): degraded rapidly

Reference: patent US10842807B2, “Methods of treating neurodegenerative disorders comprising DNA methyltransferase inhibitors” (Washington University, priority 2016, dated 2020)
